Consider 6 compounds from patent US7056929B2, “Benzo[b]pyrano[3,2-h]acridin-7-one compounds” (Les Laboratoires Servier, priority 2001, dated 2006).

Read-outs that look alike come from different tables or passages of the source. Marks after values point to notes of the source that are not given here.

In series [1] the test system is Murine leukaemia L1210. Description: In vitro cytotoxicity on murine leukaemia L1210 (Microculture Tetrazolium Assay).
Protocol: (§2) Murine leukaemia L1210 was used in vitro. The cells are cultured in RPMI 1640 complete culture medium containing 10% foetal calf serum, 2 mM glutamine, 50 units/ml of penicillin, 50 μg/ml of streptomycin and 10 mM Hepes, pH: 7.4. The cells are distributed on microplates and exposed to the cytotoxic compounds for 4 doubling periods, or 48 hours. The number of viable cells is then quantified by means of a colorimetric assay, the Microculture Tetrazolium Assay (J. Carmichael et al., Cancer Res., 47, 936–942, (1987)). The results are expressed as IC50, the concentration of cytotoxic agent which inhibits the proliferation of the treated cells by 50%.
Series [2] deals with Human KB-3-1 (bucal epidermoïde carcinoma) cell. Description: In vitro cytotoxicity on human KB-3-1 cells (procedure of Example 27).
Protocol: as §2
For series [3], the system named is C38 adenocarcinoma of the colon. As to the kind of experiment: Anti-tumour activity with respect to C38 adenocarcinoma of the colon in mice. It is filed as in vivo. The conditions noted are these: for T/C (tumor growth), C38: Table 3; for anti-tumour activity (% T/C): C38 s.c. in B6D2F1 mice, tumour volume. The procedure:
Tumour fragments of C38 adenocarcinoma of the colon weighing approximately 30 mg were implanted under the skin of B6D2F1 mice (Iffa Credo, France) on day 0.
After growth of the tumour, the mice were divided into control (18 animals) and treated (6 or 7 animals) groups, which were homogeneous with respect to tumour size. The products were administered by the i.v. route once per week for 3 weeks (on days 10, 17 and 24), at their Maximum Tolerated Dose (MTD), MTD/2 and MTD/4. The tumours were measured twice a week and the tumour volumes were calculated according to the following formula: volume (mm^3)=length (mm)×breadth (mm^2)/2. The anti-tumour activity is expressed as % T/C:
[formula] V0 and Vt being the initial volume of the tumour and its volume at measurement time t, respectively.
The optimum dose is the dose giving the lowest T/C value without toxicity (early death or weight loss greater than 20%).
The procedure used in the anti-tumour activity with respect to C38 adenocarcinoma is the same as the procedure described in the present application at Example 28.

Series [4] concerns P388 (murine leukaemia). Description: Anti-tumour activity with respect to P388 leukaemia in mice. The class given is in vivo. The conditions noted are these: P388 i.p. in B6D2F1 mice, products i.v. on day 1. On the procedure: Line P388 (murine leukaemia) was supplied by the National Cancer Institute (Frederick, USA). The tumour cells (10^6 cells) were inoculated on day 0 into the peritoneal cavity of female B6D2F1 mice (Iffa Credo, France). Six mice weighing from 18 to 20 g were used in each test group. The products were administered by the intravenous route on day 1. The anti-tumour activity is expressed as % T/C: […]

The subject of series [5] is human A549 non-small cell lung carcinoma. Description: Anti-tumour activity on A549 lung carcinoma in nude mice. It is filed as in vivo. The conditions noted are these: A549 in pleural space of nude mice, median survival time. On the procedure: (§1) The anti-tumour activity of the compounds against the human A549 non-small cell lung carcinoma was evaluated essentially as described (Kraus-Berthier, L., Jan, M., Guilbaud, N., Naze, M., Pierré, A., and Atassi, G. Histology and sensitivity to anticancer drugs of two human non-small cell lung carcinomas implanted in the pleural cavity of nude mice. Clinical Cancer Res., 6, 297–304, 2000). Briefly, 10^6 A549 cells were implanted through the chest wall into the left pleural space of nude mice in a volume of 100 μl. Compounds were administered i.v. at three doses on days 14 and 24 after tumor graft. Animal mortality was checked daily and the anti-tumour activity was expressed as T/C %=(median survival time of treated group/median survival time of control group)×100. Results given in table 3 are the highest T/C values obtained at the maximum non-toxic dose, i.e. the optimal dose.

For series [6], the system named is human IGROV1 ovarian carcinoma. Description: Anti-tumour activity on IGROV1 ovarian carcinoma in nude mice. The class given is in vivo. The conditions noted are these: IGROV1 i.p. in nude mice, 12.5 mg/kg i.v. days 4 and 14, optimal dose; median survival time. On the procedure:
as §1
The anti-tumour activity of the compounds against the human IGROV1 ovarian carcinoma was evaluated essentially as described (Burbridge, M. F., Kraus-Berthier, L., Naze, M., Pierré, A., Atassi, G. and Guilbaud, N. Biological and pharmacological characterization of three models of human ovarian carcinoma established in nude mice: use of the CA125 tumor marker to predict antitumor activity. Int. J. Oncol., 15, 1155–1162, 1999). […] The anti-tumour activity was evaluated as described above for A549 lung carcinoma.

The test system of series [7] is Murine leukaemia L1210.
Protocol: as §2
For series [8], the system named is Human KB-3-1 (bucal epidermoïde carcinoma) cell.
Protocol: as §2
Setting [9] is: Mus musculus, L1210, read-out: IC50 (μM), Cytotoxicity on Murine L 1210 cells.
[10] abbreviates: Homo sapiens, KB 3-1, read-out: IC50 (μM), Cytotoxicity on Human KB-3-1 (bucal epidermoïde carcinoma) cell.

With `CCN(CC)C(=O)O[C@@H]1c2c(cc(OC)c3c(=O)c4cc5ccccc5cc4n(C)c23)OC(C)(C)[C@@H]1OC(=O)N(CC)CC` (racemic) [Example 23, (±)-cis-1-{[(Diethylamino)carbonyl]oxy}-6-methoxy-3,3,14-trimethyl-7-oxo-2,3,7,14-tetrahydro-1H-benzo[b]pyrano[3,2-h]acridin-2-yl diethylcarbamate], the IC50 in series [1] (setting [9]) worked out at 0.9 µM.

Regarding `Cn1c2cc3ccccc3cc2c(=O)c2c(OCCO)cc3c(c21)C=CC(C)(C)O3` [Example 1, 6(2-Hydroxyethoxy)-3,3,14-trimethyl-3,14-dihydro-7H-benzo[b]-pyrano[3,2-h]acridin-7-one], the half-maximal inhibitory concentration (IC50) in series [2] (setting [10]) is 0.5 µM.

With `COc1cc2c(c3c1c(=O)c1cc4ccccc4cc1n3C)[C@H](OC(=O)N(C)C)[C@H](OC(=O)N(C)C)C(C)(C)O2` [Example 11, (1S,2S)-1-{[(Dimethylamino)carbonyl]oxy}-6-methoxy-3,3,14-trimethyl-7-oxo-2,3,7,14-tetrahydro-1H-benzo[b]pyrano[3,2-h]acridin-2-yl dimethylcarbamate], in series [3] (C38, dose 25 mg/kg i.v.), the “T/C (tumor growth), C38” value is given as 41%^a. In series [3] (i.v. days 10, 17 and 24, optimum dose of 25 mg/kg), the “anti-tumour activity (% T/C)” value is on record as 41%. Besides, the IC50 in series [2] (setting [10]) turned out to be 0.4 µM; in series [1] (Mus musculus, L1210, 48 h) it was 0.78 µM; in series [1] (setting [9]), 0.8 µM.

Regarding `COc1cc2c(c3c1c(=O)c1ccccc1n3C)C=CC(C)(C)O2` [acronycine, reference compound], in series [4], the T/C result is on record as “only marginally active”. Further, the “anti-tumour activity (% T/C)” value in series [3] (i.v. days 10, 17 and 24, optimum dose of 100 mg/kg) worked out at 27%.

As for “(±)-cis-1,2-Dipentenoyloxy-6-methoxy-3,3,14-trimethyl-2,3,7,14-tetrahydro-1H-benzo[b]pyrano[3,2-h]acridin-7-one [Example 7]”, the “T/C (tumor growth), C38” value in series [3] (C38, dose 25 mg/kg i.v.) is 12%^a. In addition, the “anti-tumour activity (% T/C)” value in series [3] (i.v. days 10, 17 and 24, optimum dose of 12.5 mg/kg) was 30%. Further, the “T/C (survival), A549” value in series [5] (12.5 mg/kg i.v. days 14 and 24, optimal dose) turned out to be 218%^b. Besides, the “T/C (survival), IGROV1” value in series [6] amounted to 148%^b. Further, the IC50 was 0.14 µM in series [2] (read-out: IC50 (μM), Cytotoxicity on Human KB-3-1 (bucal epidermoïde carcinoma) cell, KB-3-1 cells, procedure of Example 27, Table 2); 0.52 µM in series [1] (L1210 cells, exposure 4 doubling periods or 48 hours); 0.5 µM in series [1] (read-out: IC50 (μM), Cytotoxicity on Murine L 1210 cells, L1210 cells, procedure of Example 27, Table 1).

As to “(±)-cis-1-Hydroxy-6-methoxy-2-pentenoyloxy-3,3,14-trimethyl-2,3,7,14-tetrahydro-1H-benzo[b]pyrano[3,2-h]acridin-7-one [Example 8]”, the “T/C (tumor growth), C38” value in series [3] (C38, dose 50 mg/kg i.v.) is listed as 15%^a. Moreover, the “T/C (survival), A549” value in series [5] (25 mg/kg i.v. days 14 and 24, optimal dose) was determined as 340%^b. For the same compound, the results for the IC50 in series [7] and in series [8] were 0.9 µM and 0.1 µM, respectively.

One may read the IC50 as the concentration that gives 50% inhibition.
